Experimental data: patent US6362195B1, “Branched alkoxy-substituted 2-aminopyridines as NOS inhibitors” (Pfizer Inc., priority 1997, dated 2002)
Structures can show the parent of a compound that is named as a salt.

Row | melting point [°C] | Structure (SMILES)
1 | > 200 | Nc1cccc(-c2ccc(CCN3CCN(CCc4ccccc4)CC3)cc2OC2CCCC2)n1 (as salt: hydrochloride)
2 | 148 to 165 | CC(C)Oc1cc(C(O)CN2CCN(CCc3ccccc3)CC2)ccc1-c1cccc(N)n1 (centres unmarked) (as salt: hydrochloride)
